Consider ten molecules from ChEMBL document CHEMBL1201862, “PubChem BioAssay data set” (2004).

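Assay format: 96-well plates, 48-hour exposure. GI50: concentration for 50% inhibition of growth.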 The source made the active and inactive calls. Cut-off read from the data, not from the text of the source: active = GI50 up to about 1.1 µM and inactive = higher. Where only a bound is given, the exact number is not on record here.

Some test systems named below: A498; DU-145; HL-60; HOP-62; HT-29; Hs-578T; NCI-H460; NCI/ADR-RES; OVCAR-4; OVCAR-5; OVCAR-8; SF-539; SN12C; SNB-19; TK-10; U-251; UACC-257; UACC-62; UO-31.
Holding throughout (assay): NCI-60 cell line screen, 48 h

In the case of `CC1(C)CC[C@]2(C(=O)O)CC[C@]3(C)C(=CC[C@@H]4[C@@]5(C)C[C@H](O)[C@H](O)[C@@](C)(CO)C5=CC[C@]43C)[C@@H]2C1`, the GI50 with A498 was > 100 µM (inactive); in the test with DU-145, 39.6 µM (inactive); in the test with HL-60, > 100 µM (inactive); with HOP-62, > 100 µM (inactive); with HT-29 it was 55.5 µM (inactive); with Hs-578T, 37.7 µM (inactive). Moreover, the GI50 is 21.3 µM (inactive) with NCI-H460; 41.1 µM (inactive) in the test with NCI/ADR-RES; 31.4 µM (inactive) with OVCAR-4; > 100 µM (inactive) in the test on OVCAR-5; 37.2 µM (inactive) in the test on OVCAR-8; > 100 µM (inactive) in the test with SF-539. Further, the GI50 with SN12C was 51.9 µM (inactive); with SNB-19, 42.7 µM (inactive); with TK-10, > 100 µM (inactive); in the test with U-251 it was 61.7 µM (inactive); in the test on UACC-257, > 100 µM (inactive); with UACC-62 it was > 100 µM (inactive). Also, the GI50 in the test on UO-31 is 39.3 µM (inactive).

As for `Oc1ccc(/C=C/c2ccc3cccc(O)c3n2)cc1O`, the GI50 in the test with A498 was 11.5 µM (inactive); in the test on DU-145 it was 2.79 µM (inactive); with HL-60 it was 1.96 µM (inactive); in the test on HOP-62 it was 13.1 µM (inactive); with HT-29, 14.7 µM (inactive); with Hs-578T, 36.1 µM (inactive). Also, the GI50 was 3.11 µM (inactive) in the test with NCI-H460; 0.493 µM (active) in the test on NCI/ADR-RES; 7.5 µM (inactive) with OVCAR-4; 16.1 µM (inactive) with OVCAR-5; 5.86 µM (inactive) in the test with OVCAR-8; 3.13 µM (inactive) in the test on SF-539. Further, the GI50 was 2.94 µM (inactive) in the test with SN12C; 5.02 µM (inactive) in the test on SNB-19; 9.31 µM (inactive) with TK-10; 4.2 µM (inactive) in the test with U-251; 10.5 µM (inactive) in the test on UACC-257; 4.79 µM (inactive) in the test with UACC-62. Also, the GI50 in the test with UO-31 is 2.74 µM (inactive).

`COc1cc(O)c2c(=O)c3ccccc3n(C)c2c1`: the GI50 was 90.4 µM (inactive) in the test with A498; > 100 µM (inactive) in the test on DU-145; > 100 µM (inactive) in the test on HL-60; 15.9 µM (inactive) with HOP-62; > 100 µM (inactive) with HT-29; 13.4 µM (inactive) with Hs-578T. Moreover, the GI50 was 4.48 µM (inactive) in the test with NCI-H460; 32.7 µM (inactive) in the test on NCI/ADR-RES; 89.3 µM (inactive) in the test with OVCAR-4; > 100 µM (inactive) with OVCAR-5; 18.7 µM (inactive) in the test on OVCAR-8; 28.4 µM (inactive) with SF-539. The GI50 in the test on SN12C is > 100 µM (inactive); in the test with SNB-19, 0.253 µM (active); in the test with TK-10, 20.1 µM (inactive); with U-251, 29.4 µM (inactive); in the test with UACC-257, > 100 µM (inactive); in the test on UACC-62 it was 24.6 µM (inactive). The GI50 in the test with UO-31 was 6.85 µM (inactive).

As for `Cc1cc(Cc2cc(C)cc(C(C)(C)C)c2O)c(O)c(Cc2cc(C)cc(C(C)(C)C)c2O)c1`, the GI50 in the test on A498 was 2.39 µM (inactive); in the test on DU-145, 3.4 µM (inactive); in the test with HL-60, 2.51 µM (inactive); in the test on HOP-62, 2.88 µM (inactive); with HT-29, 2.55 µM (inactive); in the test with Hs-578T, 1.67 µM (inactive). Also, the GI50 with NCI-H460 is 1.57 µM (inactive); with NCI/ADR-RES it was 2.85 µM (inactive); in the test on OVCAR-4 it was 4.05 µM (inactive); with OVCAR-5 it was 3.48 µM (inactive); with OVCAR-8, 2.75 µM (inactive); with SF-539 it was 2.51 µM (inactive). The GI50 in the test on SN12C is 2.34 µM (inactive); in the test on SNB-19, 4.11 µM (inactive); with TK-10, 3.03 µM (inactive); in the test on U-251 it was 2.7 µM (inactive); with UACC-257, 2.29 µM (inactive); in the test with UACC-62 it was 1.86 µM (inactive). The GI50 with UO-31 was 2.98 µM (inactive).

Take `N#C/C(=C(\O)C(=O)O)c1ccc(-c2cccc3ccccc23)cc1`: the GI50 was > 100 µM (inactive) in the test with A498; > 100 µM (inactive) with DU-145; 19.5 µM (inactive) in the test with HL-60; > 100 µM (inactive) with HOP-62; > 100 µM (inactive) in the test with HT-29; > 100 µM (inactive) in the test with Hs-578T. Further, the GI50 in the test on NCI-H460, with NCI/ADR-RES, with OVCAR-4, in the test on OVCAR-5, in the test on OVCAR-8 and with SF-539 was > 100 µM (inactive) each time. Moreover, the GI50 in the test with SN12C, in the test with SNB-19, in the test with TK-10, with U-251, in the test on UACC-257 and in the test on UACC-62 was > 100 µM (inactive) throughout. In addition, the GI50 in the test with UO-31 was > 100 µM (inactive).

As for `CC(=O)NC1CCC(NC(=O)OC(C)(C)C)C(NC(=O)OC(C)(C)C)C1` (stereo not given), the GI50 with A498, in the test on DU-145, in the test on HL-60, in the test on HOP-62, in the test on HT-29 and in the test with Hs-578T was > 100 µM (inactive) in each case. Also, the GI50 in the test on NCI-H460, in the test with NCI/ADR-RES, in the test with OVCAR-4, in the test on OVCAR-5, with OVCAR-8 and with SF-539 was > 100 µM (inactive) throughout. Also, the GI50 with SN12C, in the test with SNB-19, with TK-10, with U-251, in the test with UACC-257 and in the test with UACC-62 was > 100 µM (inactive) each time. For the same molecule, in the test with UO-31, the GI50 is > 100 µM (inactive).

Consider `COC(=O)/C=c1/c2ccccc2n2nc3ccccc3c12`, for which the GI50 in the test on A498 was 26.2 µM (inactive); in the test with DU-145 it was > 100 µM (inactive); in the test on HL-60 it was 45 µM (inactive); with HOP-62, > 100 µM (inactive); in the test with HT-29, 38.9 µM (inactive); in the test on Hs-578T it was 52 µM (inactive). For the same molecule, the GI50 in the test on NCI-H460 was 43.9 µM (inactive); with NCI/ADR-RES it was 30.8 µM (inactive); in the test on OVCAR-4 it was 23 µM (inactive); in the test on OVCAR-5 it was > 100 µM (inactive); in the test on OVCAR-8 it was > 100 µM (inactive); with SF-539 it was 26.6 µM (inactive). For the same molecule, the GI50 in the test on SN12C is 66.8 µM (inactive); in the test on SNB-19, 82.4 µM (inactive); with TK-10, 31.6 µM (inactive); in the test on U-251 it was 69 µM (inactive); with UACC-257, 80.9 µM (inactive); in the test with UACC-62 it was 70.8 µM (inactive). In addition, the GI50 in the test on UO-31 was 62.2 µM (inactive).

Consider `Cn1c(N)c(/N=N/c2ccc(S(N)(=O)=O)cc2)c(=O)n(C)c1=O`, for which the GI50 is > 100 µM (inactive) in the test on A498; > 100 µM (inactive) in the test with DU-145; > 100 µM (inactive) in the test with HL-60; 40.9 µM (inactive) in the test on HOP-62; > 100 µM (inactive) in the test on HT-29; 22.3 µM (inactive) with Hs-578T. Besides, the GI50 in the test on NCI-H460, in the test with NCI/ADR-RES, in the test with OVCAR-4, in the test on OVCAR-5, with OVCAR-8 and in the test with SF-539 was > 100 µM (inactive) throughout. Also, the GI50 in the test on SN12C is > 100 µM (inactive); in the test with SNB-19 it was 81.8 µM (inactive); in the test on TK-10, > 100 µM (inactive); with U-251, 45.9 µM (inactive); in the test on UACC-257, > 100 µM (inactive); in the test with UACC-62 it was 91.8 µM (inactive). The GI50 with UO-31 is > 100 µM (inactive).

As to `OC1[C@@H]2[C@@H](O)CCCN2C[C@@H](O)[C@H]1O` (stereo not given in full), the GI50 in the test with A498, in the test with DU-145, with HL-60, in the test with HOP-62, with HT-29 and in the test on Hs-578T was > 100 µM (inactive) in each case. For the same molecule, the GI50 in the test on NCI-H460, in the test on NCI/ADR-RES, with OVCAR-4, in the test on OVCAR-5, with OVCAR-8 and in the test on SF-539 was > 100 µM (inactive) each time. Also, the GI50 in the test with SN12C, with SNB-19, in the test on TK-10, in the test with U-251, with UACC-257 and with UACC-62 was > 100 µM (inactive) throughout. Also, the GI50 in the test on UO-31 is > 100 µM (inactive).

`COC(=O)c1ccc(CCC2=CC(=O)C(Br)=CC2=O)cc1`: the GI50 with A498 was 20.2 µM (inactive); in the test with DU-145, 18.1 µM (inactive); in the test with HL-60, 2 µM (inactive); with HOP-62, 17.8 µM (inactive); in the test on HT-29, 16.7 µM (inactive); with Hs-578T, 20.4 µM (inactive). Besides, the GI50 with NCI-H460 was 18.2 µM (inactive); with NCI/ADR-RES it was 18.7 µM (inactive); with OVCAR-4, 17.2 µM (inactive); with OVCAR-5, 18.8 µM (inactive); in the test with OVCAR-8 it was 16.3 µM (inactive); with SF-539, 17.8 µM (inactive). For the same molecule, the GI50 in the test on SN12C is 17.5 µM (inactive); in the test on SNB-19 it was 15.6 µM (inactive); in the test on TK-10, 17.3 µM (inactive); in the test on U-251, 16.7 µM (inactive); with UACC-257, 15.6 µM (inactive); in the test with UACC-62, 17.8 µM (inactive). Also, in the test on UO-31, the GI50 was 15.8 µM (inactive).
